Values of other authors in US20050107349A1, “Method for the treatment or prevention of respiratory disorders with a cyclooxygenase-2 inhibitor in combination with a muscarinic receptor antagonist and compositions therewith” (Pharmacia Corporation, priority 2003, published 2005).

Tests used:
[1] = system: subjects suffering from asthma

In the case of `C[N+]1(C)[C@@H]2C[C@@H](OC(=O)C(O)(c3cccs3)c3cccs3)C[C@H]1[C@@H]1O[C@@H]12` [tiotropium, (1α, 2β, 4β, 5α, 7β)-7-[(hydroxy-2-thienylacetyl)oxy]-9,9-dimethyl-3-oxa-9-azoniatricyclo [3.3.1.0^2,4]nonane bromide monohydrate], the “dose-dependent and prolonged bronchodilator effect (duration)” value (patients with COPD) is given as no more than 48 h and the bronchodilation [1] is given as “prolonged bronchodilation”.
